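48-hour exposure; five concentrations; linearly interpolated endpoints. Definition used: TGI = concentration required for complete inhibition of growth.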
Experiments:
Experiment in all cases: NCI tumour cell line growth inhibition, 48 h
OVCAR-8 ovarian = system: OVCAR-8 ovarian
HT29 colon = system: HT29 colon
HOP-92 NSCLC = system: HOP-92 NSCLC
NCI-H23 lung = system: NCI-H23 lung
HCC-2998 colon = system: HCC-2998 colon
RPMI-8226 leukemia = system: RPMI-8226 leukemia
KM12 colon = system: KM12 colon
ACHN renal = system: ACHN renal
SF-539 CNS = system: SF-539 CNS
RXF 393 renal = system: RXF 393 renal
UACC-257 melanoma = system: UACC-257 melanoma
COLO 205 colon = system: COLO 205 colon
SF-268 CNS = system: SF-268 CNS
HCT-116 colon = system: HCT-116 colon
EKVX NSCLC = system: EKVX NSCLC
HL-60(TB) leukemia = system: HL-60(TB) leukemia
MOLT-4 leukemia = system: MOLT-4 leukemia
SK-MEL-2 melanoma = system: SK-MEL-2 melanoma
A549 NSCLC = system: A549 NSCLC
UO-31 renal = system: UO-31 renal
IGROV1 ovarian = system: IGROV1 ovarian
UACC-62 melanoma = system: UACC-62 melanoma
SNB-75 CNS = system: SNB-75 CNS
SK-MEL-5 melanoma = system: SK-MEL-5 melanoma
SNB-19 CNS = system: SNB-19 CNS
SF-295 CNS = system: SF-295 CNS
NCI-H226 lung = system: NCI-H226 lung
CCRF-CEM leukemia = system: CCRF-CEM leukemia
SK-MEL-28 melanoma = system: SK-MEL-28 melanoma
OVCAR-3 ovarian = system: OVCAR-3 ovarian
NCI-H460 lung = system: NCI-H460 lung
DMS 114 small cell lung = system: DMS 114 small cell lung
M14 melanoma = system: M14 melanoma
HOP-62 NSCLC = system: HOP-62 NSCLC
TK-10 renal = system: TK-10 renal
SW-620 colon = system: SW-620 colon
M19-MEL melanoma = system: M19-MEL melanoma
CAKI-1 renal = system: CAKI-1 renal
LXFL 529 NSCLC = system: LXFL 529 NSCLC
KM20L2 colon = system: KM20L2 colon

`CN=c1ssc(=S)n1C(C)C` gave a TGI (OVCAR-8 ovarian) greater than 100 µM, a TGI (HT29 colon) of 16.2 µM and a TGI (HOP-92 NSCLC) of 67.1 µM. The TGI (NCI-H23 lung) was 80.7 µM, the TGI (HCC-2998 colon) was 27.8 µM and the TGI (RPMI-8226 leukemia) was 60.3 µM. The TGI (KM12 colon) was greater than 100 µM, the TGI (ACHN renal) was 95.5 µM and the TGI (SF-539 CNS) was 86.6 µM. The TGI (RXF 393 renal) was 22.4 µM, the TGI (UACC-257 melanoma) was 53.5 µM and the TGI (COLO 205 colon) was 39.4 µM. The TGI (SF-268 CNS) was greater than 100 µM, the TGI (HCT-116 colon) was greater than 100 µM and the TGI (EKVX NSCLC) was greater than 100 µM. For the same compound, the TGI (HL-60(TB) leukemia) was 14.7 µM, the TGI (MOLT-4 leukemia) was 51.7 µM and the TGI (SK-MEL-2 melanoma) was greater than 100 µM. It also gave a TGI (A549 NSCLC) greater than 100 µM, a TGI (UO-31 renal) greater than 100 µM and a TGI (IGROV1 ovarian) of 46.4 µM. The TGI (UACC-62 melanoma) was 31.1 µM, the TGI (SNB-75 CNS) was 52.3 µM and the TGI (SK-MEL-5 melanoma) was greater than 100 µM. The TGI (SNB-19 CNS) was greater than 100 µM, the TGI (SF-295 CNS) was greater than 100 µM and the TGI (NCI-H226 lung) was greater than 100 µM. The TGI (CCRF-CEM leukemia) was 11.8 µM, the TGI (SK-MEL-28 melanoma) was 9.24 µM and the TGI (OVCAR-3 ovarian) was 35 µM. For the same compound, the TGI (NCI-H460 lung) was greater than 100 µM, the TGI (DMS 114 small cell lung) was 20.3 µM and the TGI (M14 melanoma) was 79 µM. It also gave a TGI (HOP-62 NSCLC) of 43.7 µM, a TGI (TK-10 renal) greater than 100 µM and a TGI (SW-620 colon) of 20.6 µM. For the same compound, the TGI (M19-MEL melanoma) was 28.6 µM, the TGI (CAKI-1 renal) was 88.2 µM and the TGI (LXFL 529 NSCLC) was 19.9 µM. For the same compound, the TGI (KM20L2 colon) was 41.4 µM.

From PubChem BioAssay (NCI)
